Converted amounts (≈) assume the structure as drawn. Read-outs that look alike come from different tables or passages of the source. Bridge positions count the residues as written; N and C are the ends. Peptide text beside a SMILES is read from it.
What was measured:
[1] = system: cellular uptake of 2 in HeLa Kyoto cells; test: cells; type: cell-based
Protocol: (§1) With COCs 1 and 2 as cell-penetrating reporters, a fully automated, fluorescent microscopy image-based high-content high-throughput (HCHT)[19] inhibitor screening assay was developed. HeLa cells in multiwell plates are incubated with a reporter at constant and inhibitors at varying concentrations and incubation times. Hindered reporter uptake then causes decrease of fluorescence inside of cells (Fig. 3a). Automated data analysis[19] was established to extract average fluorescence intensity per cell and, at the same time, cell viability from propidium iodide negative nuclei count (Fig. 3 and S3–S6 ^†). Standard assay conditions consisted of pre-incubation of HeLa cells with inhibitors for different periods of time, followed by the removal of inhibitors and the addition of reporters, thus excluding possible interactions between the two in the extracellular environment. In alternative co-incubation conditions, inhibitors were not removed before the addition of reporters to allow for eventual interactions between the two.
(§2) 4. High-Content High-Throughput (HCHT) Inhibitor Screening
(§3) 4.1. General Procedure for HCHT Inhibitor Screening
(§4) 4.1.1. Pre-Incubation of Inhibitors
(§5) HeLa Kyoto cells were seeded at 1.2 ×10^4 cells/well in FluoroBrite DMEM + 10% FBS on μ-Plate 96-well Black ibiTreat sterile and kept at 37 °C with 5% CO2 overnight. Next day, serial dilutions of the inhibitors in PBS (10x final concentration), reporter 1 or 2 (100 μM in PBS) and a solution of Hoechst 33342 (100 μg/mL) and PI (10 μg/mL) in PBS were prepared freshly in a 96-well V-bottom plate. Then, cells were washed with PBS ([…]) and the media was exchanged to FluoroBrite DMEM (4 x 150 μL/well) using a plate washer (Biotek EL406®), keeping always a final volume of 135 μL/well. The inhibitor solutions from the V-bottom plate were added to the cells (15 μL/well, 10x final concentration in PBS) using an electronic multichannel pipettes to reach a final volume of 150 μL/well. Cells were incubated for the time of interest (for details of each inhibitors, see Section 4.3 and 4.4) at 37 °C with 5%
(§6) CO2. After this, cells were washed again using the plate washer and reporter solution 1 or 2 from the V-bottom plate was added (15 μL/well) using an electronic multichannel pipettes to reach a final volume of 150 μL/well and a final concentration of 10 μM, except for the control wells, where only PBS was added (15 μL/well). After 30 min of incubation at 37 °C with 5% CO2, the plate was washed again using the plate washer. Then, the solution of Hoechst 33342 and PI from V-bottom plate was added (15 μL/well) using an electronic multichannel pipettes to reach a final volume of 150 μL/well. After 15 min of incubation at 37 °C with 5% CO2, the plate was washed one last time and the cells were kept in clean FluoroBrite DMEM. During imaging, samples were kept at 37 °C with 5% CO2 in the microscope.
(§7) 4.1.2. Co-Incubation of Inhibitors and Reporters […]
(§8) serial dilutions of the inhibitors in PBS (10x final concentration), reporter 1 or 2 (110 μM in […]
(§9) freshly in a 96-well V-bottom plate. Then, cells were washed with the plate washer. The inhibitor solutions from the V-bottom plate were added to the cells (15 μL/well, 10x final concentration in PBS) using an electronic multichannel pipettes to reach a final volume of 150 μL/well. Cells were incubated for the time of interest (for details of each inhibitors, see Section 4.3 and 4.4) at 37 °C with 5% CO2. Reporter solution 1 or 2 from V-bottom plate was then added (15 μL/well) using an electronic multichannel pipettes to reach a final volume of 165 μL/well and a final concentration of 10 μM 30 min before the next washing process, except for the control wells, where only PBS was added (15 μL/well). The plate was washed again using the plate washer. The solution of Hoechst 33342 and PI from V-bottom plate was added (15 μL/well) using an electronic multichannel pipettes to reach a final volume of 150 μL/well. After […]

[2] = system: cellular uptake of 1 in HeLa Kyoto cells; test: cells; type: cell-based; settings: for IC50: read-out: IC50, inhibition of cellular uptake of 1; for minimal effective concentration: read-out: MIC, inhibition of cellular uptake of 1; for MIC (concentration that causes ∼15% reduction of reporter uptake), against reporter 1: pre-incubation time not given (Fig. 2: 1 h pre-incubation, 30 min with reporter; some 15 min)
Protocol: as §1, §2, §3, §4, §5, §6, §7, §8, §9

[3] = HeLa Kyoto, read-out: IC50, inhibition of cellular uptake of 2, HeLa, tpre 4 h with inhibitor, removal, tinc 0.5 h with 2 (10 µM)
[4] = HeLa, longer pre-incubation (Fig. 2: 4 h pre-incubation)
[5] = HeLa, tpre 0.5 h, then tco 0.5 h co-incubation of inhibitor and 2 (10 µM)
[6] = HeLa, tpre 4 h with inhibitor, removal, tinc 0.5 h with 2 (10 µM)
[7] = HeLa, tpre 6 h with FBS, removal, tinc 0.5 h with 2 (10 µM)
[8] = HeLa Kyoto, 0.5 h, HeLa, tpre 0.5 h, then tco 0.5 h co-incubation of inhibitor and 1 (10 µM)
[9] = HeLa Kyoto, 0.5 h, HeLa, tpre 0.5 h with inhibitor, removal, tinc 0.5 h with 1 (10 µM)
[10] = HeLa Kyoto, 0.5 h, HeLa, tpre 5.5 h with FBS, then tco 0.5 h co-incubation of inhibitor and 1 (10 µM)
[11] = HeLa Kyoto, 0.5 h, HeLa, tpre 23.5 h with FBS, then tco 0.5 h co-incubation of inhibitor and 1 (10 µM)
[12] = HeLa Kyoto, 1 h, HeLa, tpre 1 h with inhibitor, removal, tinc 0.5 h with 1 (10 µM)
[13] = HeLa Kyoto, 2 h, HeLa, tpre 2 h with inhibitor, removal, tinc 0.5 h with 1 (10 µM)
[14] = HeLa Kyoto, 4 h, HeLa, tpre 4 h with inhibitor, removal, tinc 0.5 h with 1 (10 µM)
[15] = HeLa Kyoto, HeLa, tpre 1 h with inhibitor, removal, tinc 0.5 h with 1 (10 µM)
[16] = HeLa Kyoto, HeLa, tpre 2 h with inhibitor, removal, tinc 0.5 h with 1 (10 µM)
[17] = HeLa Kyoto, HeLa, tpre 5.5 h with FBS, then tco 0.5 h co-incubation of inhibitor and 1 (10 µM)
[18] = HeLa Kyoto, HeLa, tpre 23.5 h with FBS, then tco 0.5 h co-incubation of inhibitor and 1 (10 µM)
[19] = HeLa, tpre 1 h with inhibitor, removal, tinc 0.5 h with 1 (10 µM)
[20] = HeLa, tpre 2 h with inhibitor, removal, tinc 0.5 h with 1 (10 µM)

Row | Structure (SMILES) | IC50 [1, 3] | MIC against reporter 2 [1, 4] | MIC, inhibition of cellular uptake of 2 [1, 5] | MIC, inhibition of cellular uptake of 2 [1, 6] | MIC, inhibition of cellular uptake of 2 [1, 7] | IC50 [2, 8] | minimal effective concentration [2, 8] | IC50 [2, 9] | minimal effective concentration [2, 9] | minimal effective concentration [2, 10] | minimal effective concentration [2, 11] | minimal effective concentration [2, 12] | minimal effective concentration [2, 13] | minimal effective concentration [2, 14] | IC50 [2, 15] | IC50 [2, 16] | IC50 [2, 17] | IC50 [2, 18] | MIC (concentration that causes ∼15% reduction of reporter uptake), against reporter 1 ([2]; HeLa) | IC50 [2, 19] | further results
1 | O=C(O)CNC(=O)c1ccc2c(c1)SSSSS2 [compound 6] | > 10 µM | 4 µM (≈ 1.35 µg/mL) | > 20 µM | 4 µM | 60 µM | 5.1 ± 0.3 µM | 0.5 µM | 93 ± 28 µM | 0.3 µM | 5 µM | 12 µM | 0.3 µM | 0.4 µM | 0.4 µM | 35 ± 9 µM | 23 ± 6 µM | 20 ± 1 µM | > 20 µM | ≈ 0.3 μM | – | IC50 ([1]; HeLa Kyoto, 0.5 h, read-out: IC50, inhibition of cellular uptake of 2, HeLa, tpre 0.5 h, then tco 0.5 h co-incubation of inhibitor and 2 (10 µM)): > 20 µM; IC50 ([1]; HeLa Kyoto, read-out: IC50, inhibition of cellular uptake of 2, HeLa, tpre 6 h with FBS, removal, tinc 0.5 h with 2 (10 µM)): > 100 µM; IC50 ([2]; HeLa Kyoto, HeLa, tpre 4 h with inhibitor, removal, tinc 0.5 h with 1 (10 µM)): 24 ± 5 µM
2 | [O-][S+]1CC(O)C(O)CS1 (centres unmarked) [compound 17] | – | – | – | – | – | > 500 µM | 100 µM | – | – | 250 µM | 150 µM | – | 300 µM | 250 µM | – | – | > 1000 µM | > 500 µM | – | > 500 µM | minimal effective concentration [2, 19]: 250 µM; IC50 [2, 20]: > 500 µM; IC50 ([2]; HeLa, tpre 4 h with inhibitor, removal, tinc 0.5 h with 1 (10 µM)): > 500 µM
3 | N[C@H]1CSSC[C@@H](C(=O)N[C@@H](CCC(=O)O)C(=O)O)NC(=O)CNC1=O [compound 19] (H-CGCE-OH; disulfide 1-3) | – | – | 5 µM | 900 µM | – | – | – | – | – | – | – | – | – | – | – | – | – | – | ≈ 300 μM | > 2000 µM | IC50 ([1]; HeLa, tpre 0.5 h, then tco 0.5 h co-incubation of inhibitor and 2 (10 µM), read-out: IC50, inhibition of cellular uptake of 2): 46 ± 5 µM; MIC, inhibition of cellular uptake of 2 ([1]; HeLa, tpre 1 h with inhibitor, removal, tinc 0.5 h with 2 (10 µM)): > 1000 µM; IC50 ([1]; HeLa, tpre 1 h with inhibitor, removal, tinc 0.5 h with 2 (10 µM), read-out: IC50, inhibition of cellular uptake of 2): > 1000 µM; MIC, inhibition of cellular uptake of 2 ([1]; HeLa, tpre 1.5 h, then tco 0.5 h co-incubation of inhibitor and 2 (10 µM)): 7 µM; IC50 ([1]; HeLa, tpre 1.5 h, then tco 0.5 h co-incubation of inhibitor and 2 (10 µM), read-out: IC50, inhibition of cellular uptake of 2): 58 ± 10 µM; MIC, inhibition of cellular uptake of 2 ([1]; HeLa, tpre 2 h with inhibitor, removal, tinc 0.5 h with 2 (10 µM)): > 1000 µM; IC50 ([1]; HeLa, tpre 2 h with inhibitor, removal, tinc 0.5 h with 2 (10 µM), read-out: IC50, inhibition of cellular uptake of 2): > 1000 µM; IC50 ([1]; HeLa, tpre 4 h with inhibitor, removal, tinc 0.5 h with 2 (10 µM), read-out: IC50, inhibition of cellular uptake of 2): > 1000 µM; MIC against reporter 2 ([1]; HeLa, upon co-incubation): ≈ 5 μM; minimal effective concentration ([2]; 1 h): 400 µM; minimal effective concentration ([2]; 2 h): 400 µM; IC50 ([2]; HeLa, tpre 0.5 h with inhibitor, removal, tinc 0.5 h with 1 (10 µM)): > 2000 µM; IC50 [2, 20]: > 2000 µM
4 | O=C(CN1C(=O)C2SSC1C(=O)N2CCOc1ccccc1)NCC(=O)OC[C@H]1OC(O)[C@H](O)[C@@H](O)[C@@H]1O (some centres unmarked) [compound 7] | – | – | – | 70 µM | 180 µM | – | – | 23 ± 4 µM | 0.5 µM | 6 µM | 54 µM | 0.5 µM | 0.2 µM | – | 27 ± 4 µM | 15 ± 1 µM | 42 ± 4 µM | > 100 µM | ≈ 0.5 μM | – | IC50 ([1]; HeLa Kyoto, HeLa, tpre 4 h with inhibitor, removal, tinc 0.5 h with 2 (10 µM), read-out: IC50, inhibition of cellular uptake of 2): > 100 µM; IC50 ([1]; HeLa Kyoto, HeLa, tpre 6 h with FBS, removal, tinc 0.5 h with 2 (10 µM), read-out: IC50, inhibition of cellular uptake of 2): > 200 µM; IC50 ([1]; HeLa Kyoto, HeLa, tpre 23.5 h with FBS, then tco 0.5 h co-incubation of inhibitor and 2 (10 µM), read-out: IC50, inhibition of cellular uptake of 2): 41 ± 4 µM; MIC, inhibition of cellular uptake of 2 ([1]; HeLa, tpre 23.5 h with FBS, then tco 0.5 h co-incubation of inhibitor and 2 (10 µM)): 15 µM
5 | O=S1(=O)C[C@H](O)[C@H](O)CS1 [compound 16] | 183 ± 18 µM | ~20 µM (≈ 3.68 µg/mL) | – | 20 µM | – | – | – | – | – | 10 µM | 150 µM | 200 µM | – | – | > 1000 µM | – | 150 ± 30 µM | 860 ± 60 µM | – | – | –
